Laboratory results: the NIST ThermoML archive (doi:10.1016/j.fluid.2011.03.031)
Numbers after ± are expanded uncertainties.

Assay: wn = mass fraction of the nth substance listed
Conditions: 101 kPa, Liquid, w1 = 0.321; for electrical conductivity: Phywe conductometer; for mass density: Vibrating tube method

CCN(CC)CC [triethylamine] + O
Conditions | electrical conductivity [S/m] | mass density [kg/m3]
284.65 K | 0.04696 ± 0.00011 | 935.6 ± 0.4
285.14 K | 0.04816 ± 0.0001 | 935.2 ± 0.4
285.64 K | 0.04926 ± 0.0001 | 934.7 ± 0.4
286.14 K | 0.05046 ± 0.0001 | 934.2 ± 0.4
286.65 K | 0.05156 ± 0.0001 | 933.7 ± 0.4
287.14 K | 0.05276 ± 0.0001 | 933.1 ± 0.4
287.65 K | 0.05396 ± 0.0001 | 932.5 ± 0.4
288.09 K | 0.05496 ± 0.0001 | 932 ± 0.4
288.59 K | 0.05616 ± 0.0001 | 931.4 ± 0.4
288.89 K | 0.05676 ± 0.0001 | 931 ± 0.4
289.14 K | 0.05736 ± 0.00011 | 930.7 ± 0.4
289.42 K | 0.05806 ± 0.0001 | 930.3 ± 0.4
289.65 K | 0.05856 ± 0.0001 | 930 ± 0.4
289.91 K | 0.05916 ± 0.0001 | 929.6 ± 0.4
290.15 K | 0.05976 ± 0.00011 | 929.3 ± 0.4
290.33 K | 0.06026 ± 0.00012 | 929 ± 0.4
290.44 K | 0.06056 ± 0.0001 | 928.9 ± 0.4
290.55 K | 0.06076 ± 0.0001 | 928.7 ± 0.4
290.65 K | 0.06106 ± 0.00013 | 928.6 ± 0.4
290.75 K | 0.06136 ± 0.00013 | 928.4 ± 0.4
290.84 K | 0.06166 ± 0.00013 | 928.3 ± 0.4
290.94 K | 0.06196 ± 0.00012 | 928.2 ± 0.4
291.05 K | 0.06226 ± 0.00012 | 928 ± 0.4
291.15 K | 0.06256 ± 0.00014 | 927.8 ± 0.4
291.19 K | 0.06276 ± 0.00013 | 927.8 ± 0.4
291.24 K | 0.06286 ± 0.00013 | 927.7 ± 0.4
291.29 K | 0.06306 ± 0.00017 | 927.6 ± 0.4
291.34 K | 0.06326 ± 0.00015 | 927.5 ± 0.4
291.39 K | 0.06346 ± 0.00015 | 927.5 ± 0.4
